Laboratory results: patent US20220274980A1, “PHARMACOLOGICAL INHIBITORS OF THE ENL YEATS DOMAIN” (priority 2019, published 2022)
pIC50: −log10 of the molar value. Like-named read-outs stand apart in the source and are kept apart here.

What was measured:
BRD4 bromodomain 1 (BD1) = target: T1, BRD4 bromodomain 1 (BD1) (Homo sapiens, UniProt O60885); experiment: BRD4 (BD1)-H4 tetra-acetylated HTRF histone-binding assay
T1 construct: Selectivity against BRD4 bromodomain 1 (BD1), measured by HTRF; His; purchased Cayman 11720
Protocol: (§1) Protein Production. Double stranded DNA fragments encoding the protein sequence of ENL YEATS(1-148) were synthesized (IDT DNA) for assembly-based cloning into a modified expression vector backbone derived from pET21a (Novagen). The protein was fused to a StrepII-SUMO and 6×His tag on the amino and carboxy terminus, respectively. Transformed BL21(DE3) cells (New England Biolabs) were grown at 37° C. in 2×YT growth medium to an OD600 of 0.6. Protein expression was induced at 25° C. with the addition of isopropyl-β-D-thiogalactopyranoside (IPTG) to a final concentration of 0.4 mM. The culture was harvested by centrifugation following a 20-hour incubation and subsequently purified by immobilized metal affinity chromatography. Cells were resuspended 50 mM Tris-HCl pH 8.0, 300 mM NaCl, 10% glycerol, 10 mM imidazole, 1 mM DTT containing Complete EDTA-free protease inhibitor (Roche) and lysed by two passes through a MicroFluidizer at 10,000 psi. The lysate was clarified by centrifugation at 16,000 rpm for 30 minutes at 4° C. The supernatant was passed over NiNTA agarose (QIAGEN) and the protein was eluted in 50 mM Tris-HCl pH 8.0, 300 mM NaCl, 10% glycerol, 250 mM imidazole, 1 mM DTT. Fractions containing the ENL YEATS(1-148) fusion protein were buffer exchanged into 100 mM Tris-HCl pH 8.0, 150 mM NaCl, 1 mM EDTA, 1 mM DTT using PD10 desalting columns (GE Life Sciences). Ulp1 protease was added to cleave the StrepII-SUMO fusion and the reaction mixture was incubated overnight at 4° C. The cleavage reaction mixture was loaded onto a StrepTrap column (GE Life Sciences) and ENL YEATS(1-148) was recovered in the flow through. BRD4 BD1 was purchased from Cayman (Cat. No. 11720).
(§2) Homogenous time-resolved FRET (HTRF) histone-binding assays. Both HTRF assays were performed by combining recombinant protein and synthetic histone peptide in assay buffer (25 mM HEPES pH 7, 20 mM NaCl, 0.2% Pluronic F-127, and 0.05% BSA) with 1 nM LanthaScreen Eu-anti-His Tag antibody (ThermoFisher, Cat. No, PV5597) and 8.9 nM SureLight allophycocyanin-streptavidin (Perkin Elmer, APC-SA, Cat. No. CR130-100). ENL YEATS was used at 5 nM and BRD4 BD1 was used at 10 nM. ENL assays were performed with H3(13-32)K27cr (13.3 and 100 nM, respectively), custom synthesized at ABclonal (N-terminal biotin, C-terminal amide); BRD4 BD1 assay was performed with 13.3 nM tetra-acetylated H4 (BioVision, Cat. No. 7144-01). Once all reagents were combined (with or without peptide), 10 μL was dispensed per well into black 384-well low-volume plates (Corning, Cat. No. 3821) and drug was added by pin tool transfer (Biomek FX). Assays were incubated for 2 or more hours before measurement of HTRF signal on a PHERAstar plate reader (BMG Labtech; simultaneous dual emission; excitation=337 nm, emission 1=665 nm, emission 2=620 nm). HTRF signal (ratio of emission 1 to emission 2) from vehicle-treated wells (maximum signal) and no-peptide-control wells (minimum signal) were used to calculate percent inhibition for drug-treated wells.

ENL(YEATS)-HiBiT [1] = target: T2, ENL(YEATS)-HiBiT (Homo sapiens, UniProt Q03111); experiment: cell-based
T2 sequence (Q03111 1-138 limits assumed): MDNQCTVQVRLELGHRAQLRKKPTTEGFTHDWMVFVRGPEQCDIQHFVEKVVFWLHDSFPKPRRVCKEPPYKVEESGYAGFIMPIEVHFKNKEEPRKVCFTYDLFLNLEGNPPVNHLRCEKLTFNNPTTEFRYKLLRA
Protocol: (§3) Cellular thermal shift assay (CETSA). […] Cells were transferred to 384-well (20,000 cells per well in 20 μL) or 1,536-well (3,000 cells per well in 4 μL) plates and drug was transferred using a 100 nL pin tool for 384-well plates or acoustic transfer (Labcyte, Echo Liquid Handler) for 1,536-well plates. Luminescent detection of HiBiT was performed by combining an equal volume of Nano-Glo HiBiT Lytic Reagent (Promega, HiBiT Lytic Detection System, Cat. No. N3040) in each well. […] Briefly, cells were treated with drug, washed with PBS, heated to various temperatures in a thermocycler, cooled to room temperature, lysed by three rounds of freeze-thaw, and then clarified lystaes were subjected to immunoblot analysis.

[2] = target: T3, ENL YEATS domain (association with H3K27cr) (Homo sapiens, UniProt Q03111); experiment: biochemical; conditions: ENL (YEATS)-H3K27cr HTRF (IC50, μM)
T3 sequence (Q03111 1-148): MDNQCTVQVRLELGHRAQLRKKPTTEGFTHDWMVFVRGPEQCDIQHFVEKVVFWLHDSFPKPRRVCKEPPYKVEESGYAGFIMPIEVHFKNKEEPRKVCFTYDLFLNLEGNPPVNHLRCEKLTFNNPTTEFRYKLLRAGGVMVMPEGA
Protocol: as §1, §2

ENL(YEATS)-HiBiT [3] = target: T2, ENL(YEATS)-HiBiT; conditions: read-out: ENL YEATS CETSA (IC50); Table 2; OCI/AML-2 cells expressing ENL(YEATS)-HiBiT
Protocol: as §3

| Structure (SMILES) | pIC50 (BRD4 bromodomain 1 (BD1); Table 1) | pIC50 (BRD4 bromodomain 1 (BD1); Table 2) | pIC50 (ENL(YEATS)-HiBiT [1]) | IC50 ([2]; Table 1) [µM] | IC50 ([2]; Table 2) [µM] | pIC50 (ENL(YEATS)-HiBiT [3]) |
| --- | --- | --- | --- | --- | --- | --- |
| Cc1ccc(-c2cn3cc(C(=O)NC(C)C)ccc3n2)cc1 [Compound 14] | < 4.30 | < 4.30 | 4.10 | 2.6 | 2.6 |  |
| COc1ccc(-c2cn3cc(C(=O)NC(C)C)ccc3n2)cc1 [Compound 22] | < 4.30 | < 4.30 | 4.10 | 1.3 | 1.3 |  |
| COc1cccc(-c2cn3cc(C(=O)NC(C)C)ccc3n2)c1 [Compound 20] | < 4.30 | < 4.30 | 4.10 | 24 | 24 |  |
| CN(C(=O)c1ccc2nc(-c3ccccc3)cn2c1)C1CCC1 [Compound 81] |  |  | < 4.30 | > 50 | > 50 | < 4.30 |
| O=C(NC1C2CC1C2)c1ccc2nc(-c3ccccc3)cn2c1 (stereo not drawn) [Compound 84] |  |  | < 4.30 | > 50 | > 50 | < 4.30 |
| O=C(N[C@@H]1CC[C@@H]1c1ccccc1)c1ccc2nc(-c3ccccc3)cn2c1 [Compound 115] |  |  | < 4.30 | > 50 | > 50 | < 4.30 |
| CC(C)NC(=O)c1ccc2nc(-c3ccc(C#N)cc3)cn2c1 [Compound 4] | < 4.30 | < 4.30 | 4.10 | 2.9 | 2.9 |  |
| Cc1ccc(C2CCC2NC(=O)c2ccc3nc(-c4ccccc4)cn3c2)c(C)c1 (stereo not drawn) [Compound 123] |  |  | < 4.30 | > 50 | > 50 | < 4.30 |
| CC(NC(=O)c1ccc2nc(-c3ccccc3)cn2c1)c1ccncc1 (stereo not drawn) [Compound 24] | < 4.30 | < 4.30 | 4.10 | 12 | 12 |  |
| CC1(NC(=O)c2ccc3nc(-c4ccccc4)cn3c2)CCC1 [Compound 73] |  |  | < 4.30 | > 50 | > 50 | < 4.30 |
| O=C(NC1CCCC1)c1ccc2nc(-c3ccccc3)cn2c1 [Compound 23] | < 4.30 | < 4.30 | 4.39 | 1.8 | 1.8 |  |
| CC(C)NC(=O)c1ccc2nc(-c3cccc(C#N)c3)cn2c1 [Compound 18] | < 4.30 | < 4.30 | 4.10 | 4.5 | 4.5 |  |
| CC(C)C1CC(NC(=O)c2ccc3nc(-c4ccccc4)cn3c2)C1 (stereo not drawn) [Compound 119] |  |  | < 4.30 | > 50 | > 50 | < 4.30 |
| CC(C)NC(=O)c1ccc2nc(-c3ccncc3)cn2c1 [Compound 5] | < 4.30 | < 4.30 | 4.21 | 4.1 | 4.1 |  |
| O=C(NC1CCCC(O)C1)c1ccc2nc(-c3ccccc3)cn2c1 (stereo not drawn) [Compound 16] | < 4.30 | < 4.30 | 4.10 | 20 | 20 |  |
| O=C(N[C@H]1CCc2ccccc21)c1ccc2nc(-c3ccccc3)cn2c1 [Compound 79] |  |  | < 4.30 | > 50 | > 50 | < 4.30 |
| CC(C)NC(=O)c1ccc2nc(-c3cccc(NS(=O)(=O)NCCc4c[nH]cn4)c3)cn2c1 [Compound 46] | < 4.30 | < 4.30 | 5.07 | 0.12 | 0.12 |  |
| CC1CC(NC(=O)c2ccc3nc(-c4ccccc4)cn3c2)C1 (stereo not drawn) [Compound 87] |  |  | < 4.30 | 4.6 | 4.6 | < 4.30 |
| Cc1ccccc1-c1cn2cc(C(=O)NC(C)C)ccc2n1 [Compound 26] | < 4.30 | < 4.30 | 4.10 | 33 | 33 |  |
| N#CC1(NC(=O)c2ccc3nc(-c4ccccc4)cn3c2)CCC1 [Compound 82] |  |  | < 4.30 | > 50 | > 50 | < 4.30 |
| Cc1cccc(-c2cn3cc(C(=O)NC(C)C)ccc3n2)c1 [Compound 17] | < 4.30 | < 4.30 | 4.10 | 4.8 | 4.8 |  |
| O=C(NC1Cc2ccccc21)c1ccc2nc(-c3ccccc3)cn2c1 (stereo not drawn) [Compound 80] |  |  | < 4.30 | 3.03 | 3.03 | < 4.30 |
| O=C(NC1Cc2ccccc2C1)c1ccc2nc(-c3ccccc3)cn2c1 [Compound 77] |  |  | < 4.30 | > 50 | > 50 | < 4.30 |
| O=C(NC1CCC1)c1ccc2nc(-c3ccccc3)cn2c1 [Compound 15] | < 4.30 | < 4.30 | 5.39 | 0.506 | 0.506 |  |
| O=C(NCc1cccnc1)c1ccc2nc(-c3ccccc3)cn2c1 [Compound 9] | < 4.30 | < 4.30 | 4.10 | 6.8 | 6.8 |  |
| Cc1ccc(-c2cn3cc(C(=O)NC4CCC4)ccc3n2)cc1 [Compound 71] |  |  | 5.26 | 1.17 | 1.17 |  |
| O=C(NC1CC(O)C1)c1ccc2nc(-c3ccccc3)cn2c1 (stereo not drawn) [Compound 76] |  |  | 4.45 | > 50 | > 50 |  |
